Experimental data taken from PMC11237694, “Novel pentafluorosulfanyl-containing triclocarban analogs selectively kill Gram-positive bacteria” (Microbiology Spectrum, 2024).
Converted amounts (≈) assume the structure as drawn.

What was measured:
Assay in all cases: Planktonic susceptibility (MIC/MBC), 96-well broth microdilution
MRSA ATCC 33591 = type: cell-based, methicillin-resistant S. aureus; settings: Staphylococcus aureus, MRSA reference strain; for MIC: planktonic, overnight 37°C in MHB
Description: (§1) All bacterial strains subjected to testing had been stored at −70°C prior to the experiment. The experiment commenced by streaking small amounts of the frozen bacterial samples onto Muller-Hinton agar (MHA) culture medium (BD Bacto, Oxoid, Basingstoke, UK Cat# X296B) and allowing for overnight incubation. Bacteria were re-cultured on MHA plates as required to confirm colony morphology and lack of contamination. Strains tested were P. aeruginosa ATCC 27853, E. coli ATCC 25922, Staphylococcus aureus ATCC 25923, MRSA ATCC 33591, S. epidermidis ATCC 12228, Klebsiella pneumoniae ATCC, P. mirabilis ATCC 35659, and 10 clinical isolates of MRSA from Foothills Hospital, Calgary, Canada. To prepare for susceptibility testing, a protocol modified from Lemire et al was used ([28]). MHB was swab-inoculated from MHA colonies and shake-incubated until turbid. Dilution of the broth with 0.9% saline was performed as necessary to match a 1.0 McFarland standard.
MIC and MBC assessments were conducted on all bacterial strains using 96-well microtiter plates. To prepare the wells for bacteria, serial dilutions of the antibacterial agents were carried out along the rows of two microtiter plates. The antibacterials were 2-fold diluted with Mueller-Hinton broth (MHB) in each column, reaching a volume of 75 µL. The 1.0 McFarland standard was diluted 15-fold in MHB, and 75 µL of inoculum was added to the wells treated with antibacterials, resulting in a total volume of 150 µL. The microtiter plates were covered and then shake-incubated overnight at 150 rpm and 37°C. MIC was determined based on visible bacterial growth. […] MBC was determined by transferring 3 µL of culture from all MIC microtiter plate wells to 147 µL of Mueller-Hinton broth in fresh plates. These plates were shake-incubated overnight at 150 rpm and 37°C, and bacterial growth was visually inspected.

[1] = tested on: Klebsiella pneumoniae ATCC; type: cell-based; settings: K. pneumonia; for MIC: planktonic, overnight 37°C in MHB
Description: as §1
(§2) MIC and MBC assessments were conducted on all bacterial strains using 96-well microtiter plates. To prepare the wells for bacteria, serial dilutions of the antibacterial agents were carried out along the rows of two microtiter plates. The antibacterials were 2-fold diluted with Mueller-Hinton broth (MHB) in each column, reaching a volume of 75 µL. The 1.0 McFarland standard was diluted 15-fold in MHB, and 75 µL of inoculum was added to the wells treated with antibacterials, resulting in a total volume of 150 µL. The microtiter plates were covered and then shake-incubated overnight at 150 rpm and 37°C. MIC was determined based on visible bacterial growth. In cases of antibacterial opacity or ambiguous results, streaking of well cultures on MHA, overnight incubation, and subsequent comparison with controls were performed. MBC was determined by transferring 3 µL of culture from all MIC microtiter plate wells to 147 µL of Mueller-Hinton broth in fresh plates. These plates were shake-incubated overnight at 150 rpm and 37°C, and bacterial growth was visually inspected.

[2] = tested on: Staphylococcus aureus ATCC 25923; type: cell-based; settings: Staphylococcus aureus, ATCC25923, S. aureus; for MIC: planktonic, overnight 37°C in MHB
Description: as §1, §2

P. mirabilis ATCC 35659 = type: cell-based; settings: Proteus mirabilis; for MBC: ATCC35659; for MIC: ATCC35659, planktonic, overnight 37°C in MHB
Description: as §1, §2

| SMILES | MIC (MRSA ATCC 33591) [mM] | MIC [1] [mM] | MIC [2] [mM] | MIC (P. mirabilis ATCC 35659) [mM] | MBC (MRSA ATCC 33591) [mM] | MBC [1] [mM] | MBC [2] [mM] | MBC (P. mirabilis ATCC 35659) [mM] |
| --- | --- | --- | --- | --- | --- | --- | --- | --- |
| O=C(Nc1ccc(Cl)c(C(F)(F)F)c1)Nc1ccc2nnsc2c1 [A] |  | > 5 |  | > 5 |  | > 5 |  | > 5 |
| O=C(Nc1ccc2nnsc2c1)Nc1cccc(S(F)(F)(F)(F)F)c1Cl [EBP-24, 3-(1,2,3-benzothiadiazol-6-yl)-1-(2-chloro-3-pentafluoro-λ^6-sulfanyl)urea] | 0.15 (≈ 64.6 µg/mL) | > 5 | 0.076 (≈ 32.7 µg/mL) | > 5 |  | > 5 | 78 (≈ 33600 µg/mL) | > 5 |
| O=C(Nc1ccc(Cl)c(Cl)c1)Nc1ccc2nnsc2c1 [B] | 4.9 (≈ 1660 µg/mL) | > 5 | 9.8 (≈ 3320 µg/mL) | > 5 |  | > 5 |  | > 5 |

Now from value to compound, other results behind:

| MIC (MRSA ATCC 33591) [mM] | MIC [1] [mM] | MIC [2] [mM] | MIC (P. mirabilis ATCC 35659) [mM] | SMILES | MBC (MRSA ATCC 33591) [mM] | MBC [1] [mM] | MBC [2] [mM] | MBC (P. mirabilis ATCC 35659) [mM] |
| --- | --- | --- | --- | --- | --- | --- | --- | --- |
| 0.3 (≈ 160 µg/mL) | > 5 | 4.9 (≈ 2610 µg/mL) | > 5 | O=C(Nc1ccc(Cl)c(S(F)(F)(F)(F)F)c1)Nc1ccc(Cl)c(S(F)(F)(F)(F)F)c1 [EBP-56, 1,3-bis(4-Chloro-3-(pentafluoro-λ^6-sulfanyl)phenyl) urea] | 0.61 (≈ 325 µg/mL) | > 5 | 78 (≈ 41600 µg/mL) | > 5 |
| 0.0048 (≈ 2.23 µg/mL) | > 5 | 0.019 (≈ 8.82 µg/mL) | > 5 | O=C(Nc1ccc(S(F)(F)(F)(F)F)cc1)Nc1cccc(S(F)(F)(F)(F)F)c1 [EBP-55, 1-(3-(pentafluoro-λ^6-sulfanyl)phenyl)-3-(4-(pentafluoro-λ^6-sulfanyl)phenyl)urea] | 0.15 (≈ 69.7 µg/mL) | > 5 | 78 (≈ 36200 µg/mL) | > 5 |
| 0.0048 (≈ 2.23 µg/mL) | > 5 | 0.019 (≈ 8.82 µg/mL) | > 5 | O=C(Nc1ccc(S(F)(F)(F)(F)F)cc1)Nc1ccc(S(F)(F)(F)(F)F)cc1 [EBP-33, 1,3-bis(4-pentafluoro-λ^6-sulfanyl)urea] | 2.4 (≈ 1110 µg/mL) | > 5 | 20 (≈ 9290 µg/mL) | > 5 |
| 20 (≈ 8140 µg/mL) | > 5 |  | > 5 | O=C(Nc1ccc(Cl)cc1)Nc1cccc(S(F)(F)(F)(F)F)c1Cl [EBP-58, 1-(2-Chloro-3-(pentafluoro-λ^6-sulfanyl)phenyl)-3-(4-chlorophenyl)urea] |  | > 5 |  | > 5 |
| 0.0095 (≈ 3.87 µg/mL) | > 5 | 0.038 (≈ 15.5 µg/mL) | > 5 | O=C(Nc1ccc(Cl)cc1)Nc1ccc(Cl)c(S(F)(F)(F)(F)F)c1 [EBP-41, 1-(4-chloro-3-(pentafluoro-λ^6-sulfanyl)phenyl)-3-(4-chlorophenyl)urea] | 1.2 (≈ 489 µg/mL) | > 5 | 1.2 (≈ 489 µg/mL) | > 5 |
